Experimental data from ChEMBL document CHEMBL1137449, “A refined agonist pharmacophore for protease activated receptor 2” (Bioorg Med Chem Lett, 2007).
Numbered stars: 1 amine (or outer) side, 2 acyl side, 3 side chain; on linkers, the order of the positions; unused ones are H or OH. Square brackets hold non-standard residues; d marks the D form. Peptide text beside a SMILES is read from it. * marks the point of attachment. Tyr(3,5-(NO2)2) = N[C@@H](Cc1cc([N+](=O)[O-])c(O)c([N+](=O)[O-])c1)C(=O)O; X1 = CC[C@H](C)[C@H](N)C(=O)NC(=O)[C@H](Cc1ccc([N+](=O)[O-])cc1)N*; Tyr(3-NO2) = N[C@@H](Cc1ccc(O)c([N+](=O)[O-])c1)C(=O)O; X2 = CCOP(=O)(Cc1ccc(C[C@H](N[*:1])C(=O)[*:2])cc1)OCC; Phe(4-NO2) = N[C@@H](Cc1ccc([N+](=O)[O-])cc1)C(=O)O; Phe(4-N3) = [N-]=[N+]=Nc1ccc(C[C@H](N)C(=O)O)cc1; Phe(3,4-(OMe)2) = COc1ccc(C[C@H](N)C(=O)O)cc1OC; Phe(3,4-Cl2) = N[C@@H](Cc1ccc(Cl)c(Cl)c1)C(=O)O; Phe(4-COOH) = N[C@@H](Cc1ccc(C(=O)O)cc1)C(=O)O; Phe(4-tBu) = CC(C)(C)c1ccc(C[C@H](N)C(=O)O)cc1; Phe(3-CN) = N#Cc1cccc(C[C@H](N)C(=O)O)c1; Phe(3-OMe) = COc1cccc(C[C@H](N)C(=O)O)c1; Phe(4-CN) = N#Cc1ccc(C[C@H](N)C(=O)O)cc1; Phe(4-Cl) = N[C@@H](Cc1ccc(Cl)cc1)C(=O)O; Phe(4-F) = N[C@@H](Cc1ccc(F)cc1)C(=O)O; Phe(4-I) = N[C@@H](Cc1ccc(I)cc1)C(=O)O; 1Nal = N[C@@H](Cc1cccc2ccccc12)C(=O)O; Bta = N[C@@H](Cc1csc2ccccc12)C(=O)O; Oxazole4CO(2-Me) = Cc1nc(C(=O)*)co1; hTyr = N[C@@H](CCc1ccc(O)cc1)C(=O)O; hPhe = N[C@@H](CCc1ccccc1)C(=O)O; 3Pal = N[C@@H](Cc1cccnc1)C(=O)O; 4Pal = N[C@@H](Cc1ccncc1)C(=O)O; Cha = N[C@@H](CC1CCCCC1)C(=O)O; Nle = CCCC[C@H](N)C(=O)O; 2Furoyl = O=C(c1ccco1)*

Molecular target: T1, Proteinase-activated receptor 2 (Homo sapiens, UniProt P55085)
T1 sequence (P55085 whole entry): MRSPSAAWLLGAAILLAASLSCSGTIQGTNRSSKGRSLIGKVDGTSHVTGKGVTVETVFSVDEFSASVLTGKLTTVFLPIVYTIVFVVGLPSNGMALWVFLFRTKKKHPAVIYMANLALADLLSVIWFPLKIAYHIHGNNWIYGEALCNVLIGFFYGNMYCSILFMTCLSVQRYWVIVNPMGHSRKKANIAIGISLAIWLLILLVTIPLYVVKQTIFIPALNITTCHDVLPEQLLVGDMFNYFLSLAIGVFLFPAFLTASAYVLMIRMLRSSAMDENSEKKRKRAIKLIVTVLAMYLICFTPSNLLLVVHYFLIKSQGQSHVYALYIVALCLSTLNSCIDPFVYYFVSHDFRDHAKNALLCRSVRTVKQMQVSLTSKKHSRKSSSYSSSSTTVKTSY
Test: Agonist activity at PAR2 expressed in human HT29 cells assessed as intracellular calcium release
Format: functional, cell-based, HT-29

Compound	EC50 [nM]
CC[C@H](C)[C@H](NC(=O)[C@H](CC(C)C)NC(=O)[C@@H](N)CO)C(=O)NCC(=O)N[C@@H](CCCNC(=N)N)C(=O)N[C@@H](CC(C)C)C(=O)N[C@@H](CCc1ccccc1)C(N)=O (H-SLIGRL[hPhe]-NH2)	1000
CC[C@H](C)[C@H](NC(=O)[C@H](Cc1ccc(C(=O)O)cc1)NC(=O)[C@H](CCCNC(=N)N)NC(=O)CNC(=O)[C@@H](NC(=O)[C@H](CC(C)C)NC(=O)[C@@H](N)CO)[C@@H](C)CC)C(N)=O (H-SLIGR[Phe(4-COOH)]I-NH2)	5000
CC[C@H](C)[C@H](NC(=O)[C@H](Cc1cccc(OC)c1)NC(=O)[C@H](CCCNC(=N)N)NC(=O)CNC(=O)[C@@H](NC(=O)[C@H](CC(C)C)NC(=O)[C@@H](N)CO)[C@@H](C)CC)C(N)=O (H-SLIGR[Phe(3-OMe)]I-NH2)	3300
CC[C@H](C)[C@H](NC(=O)[C@H](CC(C)C)NC(=O)[C@@H](N)CO)C(=O)NCC(=O)N[C@@H](CCCNC(=N)N)C(=O)N[C@@H](CC(C)C)C(=O)N[C@@H](Cc1ccc(F)cc1)C(N)=O (H-SLIGRL[Phe(4-F)]-NH2)	2000
CC[C@H](C)[C@H](NC(=O)[C@H](CC(C)C)NC(=O)c1coc(C)n1)C(=O)NCC(=O)N[C@@H](CCCNC(=N)N)C(=O)N[C@@H](Cc1ccc(I)cc1)C(N)=O ({Oxazole4CO(2-Me)}-LIGR[Phe(4-I)]-NH2)	320
CC[C@H](C)[C@H](NC(=O)[C@H](Cc1ccc(Cl)c(Cl)c1)NC(=O)[C@H](CCCN=C(N)N)NC(=O)CNC(=O)[C@@H](NC(=O)[C@H](CC(C)C)NC(=O)[C@@H](N)CO)[C@@H](C)CC)C(N)=O (H-SLIGR[Phe(3,4-Cl2)]I-NH2)	300
CC[C@H](C)[C@H](NC(=O)[C@H](Cc1cc([N+](=O)[O-])c(O)c([N+](=O)[O-])c1)NC(=O)[C@H](CCCNC(=N)N)NC(=O)CNC(=O)[C@@H](NC(=O)[C@H](CC(C)C)NC(=O)[C@@H](N)CO)[C@@H](C)CC)C(N)=O (H-SLIGR[Tyr(3,5-(NO2)2)]I-NH2)	1400
CC[C@H](C)[C@H](NC(=O)[C@H](Cc1cccc(C#N)c1)NC(=O)[C@H](CCCNC(=N)N)NC(=O)CNC(=O)[C@@H](NC(=O)[C@H](CC(C)C)NC(=O)[C@@H](N)CO)[C@@H](C)CC)C(N)=O (H-SLIGR[Phe(3-CN)]I-NH2)	1700
CC[C@H](C)[C@H](NC(=O)[C@H](CC(C)C)NC(=O)c1ccco1)C(=O)NCC(=O)N[C@@H](CCCNC(=N)N)C(=O)N[C@@H](Cc1ccc([N+](=O)[O-])cc1)C(N)=O (2Furoyl-LIGR[Phe(4-NO2)]-NH2)	170
CC[C@H](C)[C@H](NC(=O)[C@H](COc1ccc([N+](=O)[O-])cc1)NC(=O)[C@H](CCCNC(=N)N)NC(=O)CNC(=O)[C@@H](NC(=O)[C@H](CC(C)C)NC(=O)[C@@H](N)CO)[C@@H](C)CC)C(N)=O	2800
CC[C@H](C)[C@H](NC(=O)[C@H](CC(C)C)NC(=O)[C@@H](N)CO)C(=O)NCC(=O)N[C@@H](CCCNC(=N)N)C(=O)N[C@@H](CC(C)C)C(=O)N[C@@H](CCc1ccc(O)cc1)C(N)=O (H-SLIGRL[hTyr]-NH2)	600
CC[C@H](C)[C@H](NC(=O)[C@H](Cc1ccc(N=[N+]=[N-])cc1)NC(=O)[C@H](CCCNC(=N)N)NC(=O)CNC(=O)[C@@H](NC(=O)[C@H](CC(C)C)NC(=O)[C@@H](N)CO)[C@@H](C)CC)C(N)=O (H-SLIGR[Phe(4-N3)]I-NH2)	2500
CC[C@H](C)[C@H](NC(=O)[C@H](CC(C)C)NC(=O)[C@@H](N)CO)C(=O)NCC(=O)N[C@@H](CCCNC(=N)N)C(=O)N[C@@H](CC(C)C)C(=O)N[C@@H](CC(C)C)C(N)=O (H-SLIGRLL-NH2)	1200
CC[C@H](C)[C@H](NC(=O)[C@H](Cc1ccncc1)NC(=O)[C@H](CCCNC(=N)N)NC(=O)CNC(=O)[C@@H](NC(=O)[C@H](CC(C)C)NC(=O)[C@@H](N)CO)[C@@H](C)CC)C(N)=O (H-SLIGR[4Pal]I-NH2)	1900
CC[C@H](C)[C@H](NC(=O)[C@H](CC(C)C)NC(=O)[C@@H](N)CO)C(=O)NCC(=O)N[C@@H](CCCNC(=N)N)C(=O)N[C@@H](Cc1ccc([N+](=O)[O-])cc1)C(N)=O (H-SLIGR[Phe(4-NO2)]-NH2)	600
CC[C@H](C)[C@H](NC(=O)[C@H](CC(C)C)NC(=O)[C@@H](N)CO)C(=O)NCC(=O)N[C@@H](CCCNC(=N)N)C(=O)N[C@@H](CC(C)C)C(N)=O (H-SLIGRL-NH2)	4200
CC[C@H](C)[C@H](NC(=O)[C@H](CCc1ccccc1)NC(=O)[C@H](CCCNC(=N)N)NC(=O)CNC(=O)[C@@H](NC(=O)[C@H](CC(C)C)NC(=O)[C@@H](N)CO)[C@@H](C)CC)C(N)=O (H-SLIGR[hPhe]I-NH2)	1800
CC[C@H](C)[C@H](NC(=O)[C@H](Cc1ccccc1)NC(=O)[C@H](CCCNC(=N)N)NC(=O)CNC(=O)[C@@H](NC(=O)[C@H](CC(C)C)NC(=O)[C@@H](N)CO)[C@@H](C)CC)C(N)=O (H-SLIGRFI-NH2)	1000

Compound	EC50 [nM]
CC[C@H](C)[C@H](NC(=O)[C@H](CC(C)C)NC(=O)[C@@H](N)CO)C(=O)NCC(=O)N[C@@H](CCCNC(=N)N)C(=O)N[C@@H](CC(C)C)C(=O)N[C@@H](Cc1cccc2ccccc12)C(N)=O (H-SLIGRL[1Nal]-NH2)	1100
CC[C@H](C)[C@H](NC(=O)[C@H](CC(C)C)NC(=O)[C@H](CCCN=C(N)N)NC(=O)CNC(=O)[C@@H](NC(=O)[C@H](CC(C)C)NC(=O)[C@@H](N)CO)[C@@H](C)CC)C(N)=O (H-SLIGRLI-NH2)	700
CC[C@H](C)[C@H](NC(=O)[C@H](Cc1cccnc1)NC(=O)[C@H](CCCNC(=N)N)NC(=O)CNC(=O)[C@@H](NC(=O)[C@H](CC(C)C)NC(=O)[C@@H](N)CO)[C@@H](C)CC)C(N)=O (H-SLIGR[3Pal]I-NH2)	1100
CC[C@H](C)[C@H](NC(=O)[C@H](CCc1ccc(O)cc1)NC(=O)[C@H](CCCNC(=N)N)NC(=O)CNC(=O)[C@@H](NC(=O)[C@H](CC(C)C)NC(=O)[C@@H](N)CO)[C@@H](C)CC)C(N)=O (H-SLIGR[hTyr]I-NH2)	3000
CCOP(=O)(Cc1ccc(C[C@H](NC(=O)[C@H](CCCNC(=N)N)NC(=O)CNC(=O)[C@@H](NC(=O)[C@H](CC(C)C)NC(=O)[C@@H](N)CO)[C@@H](C)CC)C(=O)N[C@H](C(N)=O)[C@@H](C)CC)cc1)OCC (H-SLIGR[X2]I-NH2)	1300
CC[C@H](C)[C@H](N)C(=O)NC(=O)[C@H](Cc1ccc([N+](=O)[O-])cc1)NC(=O)[C@H](CCCNC(=N)N)NC(=O)CNC(=O)[C@@H](NC(=O)[C@H](CC(C)C)NC(=O)c1ccco1)[C@@H](C)CC (2Furoyl-LIGR-X1)	200
CC[C@H](C)[C@H](NC(=O)[C@H](Cc1csc2ccccc12)NC(=O)[C@H](CCCNC(=N)N)NC(=O)CNC(=O)[C@@H](NC(=O)[C@H](CC(C)C)NC(=O)[C@@H](N)CO)[C@@H](C)CC)C(N)=O (H-SLIGR[Bta]I-NH2)	300
CCCC[C@H](NC(=O)[C@H](CC(C)C)NC(=O)[C@H](CCCNC(=N)N)NC(=O)CNC(=O)[C@@H](NC(=O)[C@H](CC(C)C)NC(=O)[C@@H](N)CO)[C@@H](C)CC)C(N)=O (H-SLIGRL[Nle]-NH2)	1200
CC[C@H](C)[C@H](NC(=O)[C@H](CC(C)C)NC(=O)[C@@H](N)CO)C(=O)NCC(=O)N[C@@H](CCCNC(=N)N)C(=O)N[C@@H](CC(C)C)C(=O)N[C@@H](Cc1ccc(O)cc1)C(N)=O (H-SLIGRLY-NH2)	1200
CC[C@H](C)[C@H](NC(=O)[C@H](Cc1ccc(I)cc1)NC(=O)[C@H](CCCNC(=N)N)NC(=O)CNC(=O)[C@@H](NC(=O)[C@H](CC(C)C)NC(=O)[C@@H](N)CO)[C@@H](C)CC)C(N)=O (H-SLIGR[Phe(4-I)]I-NH2)	600
CC[C@H](C)[C@H](NC(=O)[C@H](Cc1ccc(C(C)(C)C)cc1)NC(=O)[C@H](CCCNC(=N)N)NC(=O)CNC(=O)[C@@H](NC(=O)[C@H](CC(C)C)NC(=O)[C@@H](N)CO)[C@@H](C)CC)C(N)=O (H-SLIGR[Phe(4-tBu)]I-NH2)	600
CC[C@H](C)[C@H](NC(=O)[C@H](Cc1ccc(O)c([N+](=O)[O-])c1)NC(=O)[C@H](CCCNC(=N)N)NC(=O)CNC(=O)[C@@H](NC(=O)[C@H](CC(C)C)NC(=O)[C@@H](N)CO)[C@@H](C)CC)C(N)=O (H-SLIGR[Tyr(3-NO2)]I-NH2)	1400
CC[C@H](C)[C@H](NC(=O)[C@H](Cc1ccc(C#N)cc1)NC(=O)[C@H](CCCNC(=N)N)NC(=O)CNC(=O)[C@@H](NC(=O)[C@H](CC(C)C)NC(=O)[C@@H](N)CO)[C@@H](C)CC)C(N)=O (H-SLIGR[Phe(4-CN)]I-NH2)	900
CC[C@H](C)[C@H](NC(=O)[C@H](Cc1ccc(O)cc1)NC(=O)[C@H](CCCN=C(N)N)NC(=O)CNC(=O)[C@@H](NC(=O)[C@H](CC(C)C)NC(=O)[C@@H](N)CO)[C@@H](C)CC)C(N)=O (H-SLIGRYI-NH2)	400
CC[C@H](C)[C@H](NC(=O)[C@H](CC(C)C)NC(=O)[C@@H](N)CO)C(=O)NCC(=O)N[C@@H](CCCNC(=N)N)C(=O)N[C@@H](CC(C)C)C(=O)N[C@@H](CC1CCCCC1)C(N)=O (H-SLIGRL[Cha]-NH2)	3600
CC[C@H](C)[C@H](NC(=O)[C@H](Cc1ccc(OC)c(OC)c1)NC(=O)[C@H](CCCNC(=N)N)NC(=O)CNC(=O)[C@@H](NC(=O)[C@H](CC(C)C)NC(=O)[C@@H](N)CO)[C@@H](C)CC)C(N)=O (H-SLIGR[Phe(3,4-(OMe)2)]I-NH2)	1300
CC[C@H](C)[C@H](NC(=O)[C@H](Cc1ccc(Cl)cc1)NC(=O)[C@H](CCCNC(=N)N)NC(=O)CNC(=O)[C@@H](NC(=O)[C@H](CC(C)C)NC(=O)[C@@H](N)CO)[C@@H](C)CC)C(N)=O (H-SLIGR[Phe(4-Cl)]I-NH2)	500
